Measured values reported in patent US20070128217A1 (priority 2003, published 2007).

Columns and labels:
[1] = tested on: recombinant human anti-SARS-CoV antibody 03-018; assay type: binding; set-up: Binding of antibody 03-018 to linear peptides of the N protein of SARS-CoV Urbani / Binding of antibody 03-018 to looped/cyclic peptides of the N protein of SARS-CoV Urbani: unit not given here
[2] = tested on: control sera (pooled serum of ten healthy LUMC hospital workers; commercial negative donor pooled serum from the Dutch bloodbank); assay type: binding, human
[3] = tested on: antibodies in sera from SARS patients (sera 1a, 1b, 2, 6, 37, 62, London, SARS-yellow, SARS-green); assay type: binding, human; set-up: Binding of serum 6 to linear peptides of protein X1 of SARS-CoV Urbani / Binding of serum 37 to linear peptides of protein X1 of SARS-CoV Urbani / Binding of serum 6 to looped/cyclic peptide (PEPSCAN-ELISA) / Binding of serum 37 to looped/cyclic peptide (PEPSCAN-ELISA) / Binding of serum 37 to looped/cyclic peptides of protein X1 of SARS-CoV Urbani / Binding of serum 6 to linear peptides of protein X2 / Binding of serum 37 to linear peptides of protein X2 / Binding of serum 37 to looped/cyclic peptides of protein X2 of SARS-CoV Urbani / Binding of serum 6 to linear peptides of protein M of SARS-CoV Urbani / Binding of serum 37 to linear peptides of protein M of SARS-CoV Urbani / Binding of serum 6 to looped/cyclic peptides of protein M of SARS-CoV Urbani / Binding of serum 37 to looped/cyclic peptides of protein M of SARS-CoV Urbani / Binding of serum 6 to linear peptides of protein X3 of SARS-CoV Urbani / Binding of serum 37 to linear peptides of protein X3 of SARS-CoV Urbani / Binding of serum 37 to looped/cyclic peptides of protein X3 of SARS-CoV Urbani / Binding of serum 6 to linear peptides of protein X4 of SARS-CoV Urbani / Binding of serum 37 to linear peptides of protein X4 of SARS-CoV Urbani / Binding of serum 37 to looped/cyclic peptides of protein X4 of SARS-CoV Urbani / Binding of serum 6 to linear peptides of protein X5 of SARS-CoV Urbani / Binding of serum 37 to linear peptides of protein X5 of SARS-CoV Urbani / Binding of serum 37 to looped/cyclic peptides of protein X5 of SARS-CoV Urbani / Binding of serum 6 to linear peptides of protein N of SARS-CoV Urbani / Binding of serum 37 to linear peptides of protein N of SARS-CoV Urbani / Binding of serum 6 to linear peptide (PEPSCAN-ELISA) / Binding of serum 1a to looped/cyclic peptides of protein N of SARS-CoV Urbani / Binding of serum 1b to looped/cyclic peptides of protein N of SARS-CoV Urbani / Binding of serum 2 to looped/cyclic peptides of protein N of SARS-CoV Urbani / Binding of serum 6 to looped/cyclic peptides of protein N of SARS-CoV Urbani / Binding of serum 37 to looped/cyclic peptides of protein N of SARS-CoV Urbani / Binding of serum 62 to looped/cyclic peptides of protein N of SARS-CoV Urbani / Binding of serum London to looped/cyclic peptides of protein N of SARS-CoV Urbani / Binding of serum SARS-green to looped/cyclic peptides of protein N of SARS-CoV Urbani: unit not given here
[4] = tested on: rabbit serum obtained by immunizing a rabbit with the SARS-CoV strain Frankfurt 1; assay type: binding; set-up: Binding of a rabbit serum to linear peptides / Binding of a rabbit serum to looped peptides / Rabbit serum linear peptides / Rabbit serum looped peptides / Binding of a rabbit serum to linear peptides of protein N of SARS-CoV Urbani (Rabbit serum linear peptides) / Binding of a rabbit serum to looped/cyclic peptides of protein N of SARS-CoV Urbani (Rabbit serum looped peptides): unit not given here

| Sequence | Binding of antibody 03-018 to linear peptides of the N protein of SARS-CoV Urbani [1] | Binding of antibody 03-018 to looped/cyclic peptides of the N protein of SARS-CoV Urbani [1] | Control Serum Blood-Bank Looped peptides [2] | Control serum Blood-bank linear peptides [2] | Control serum LUMC linear peptides [2] | Control serum LUMC looped peptides [2] | Binding of serum 1a to linear peptides of protein N of SARS-CoV Urbani [3] | Binding of serum 1a to looped/cyclic peptides of protein N of SARS-CoV Urbani [3] | Binding of serum 1b to linear peptides of protein N of SARS-CoV Urbani [3] | Binding of serum 1b to looped/cyclic peptides of protein N of SARS-CoV Urbani [3] | Binding of serum 2 to linear peptides of protein N of SARS-CoV Urbani [3] | Binding of serum 2 to looped/cyclic peptides of protein N of SARS-CoV Urbani [3] | Binding of serum 6 to linear peptides of protein N of SARS-CoV Urbani [3] | Binding of serum 6 to looped/cyclic peptides of protein N of SARS-CoV Urbani [3] | Binding of serum 37 to linear peptides of protein N of SARS-CoV Urbani [3] | Binding of serum 37 to looped/cyclic peptides of protein N of SARS-CoV Urbani [3] | Binding of serum 62 to linear peptides of protein N of SARS-CoV Urbani [3] | Binding of serum 62 to looped/cyclic peptides of protein N of SARS-CoV Urbani [3] | Binding of serum London to linear peptides of protein N of SARS-CoV Urbani [3] | Binding of serum London to looped/cyclic peptides of protein N of SARS-CoV Urbani [3] | also measured |
| --- | --- | --- | --- | --- | --- | --- | --- | --- | --- | --- | --- | --- | --- | --- | --- | --- | --- | --- | --- | --- | --- |
| TPSGTWLTYHGAIKL | 0.1 | 0.2 | 0.7 | 0.8 | 0.6 | 0.5 | 0.2 | 0.4 | 0.1 | 0.2 | 0.2 | 0.4 | 0.2 | 0.2 | 0.7 | 0.8 | 0.6 | 0.8 | 0.7 | 0.5 | Binding of serum SARS-green to linear peptides of protein N of SARS-CoV Urbani [3]: 0.3; Binding of serum SARS-green to looped/cyclic peptides of protein N of SARS-CoV Urbani [3]: 0.3; Binding of serum SARS-yellow to linear peptides of protein N of SARS-CoV Urbani [3]: 0.5; Binding of serum SARS-yellow to looped/cyclic peptides of protein N of SARS-CoV Urbani [3]: 0.4; Binding of a rabbit serum to linear peptides of protein N of SARS-CoV Urbani (Rabbit serum linear peptides) [4]: 0.1; Binding of a rabbit serum to looped/cyclic peptides of protein N of SARS-CoV Urbani (Rabbit serum looped peptides) [4]: 0.4 |
| TYHGAIKLDDKDPQF | 0.1 | 0.1 | 0.4 | 0.8 | 0.7 | 0.4 | 0.3 | 0.2 | 0.1 | 0.1 | 0.1 | 0.2 | 0.2 | 0.1 | 0.8 | 0.3 | 1.1 | 0.2 | 0.6 | 0.3 | Binding of serum SARS-green to linear peptides of protein N of SARS-CoV Urbani [3]: 0.4; Binding of serum SARS-green to looped/cyclic peptides of protein N of SARS-CoV Urbani [3]: 0.0; Binding of serum SARS-yellow to linear peptides of protein N of SARS-CoV Urbani [3]: 0.7; Binding of serum SARS-yellow to looped/cyclic peptides of protein N of SARS-CoV Urbani [3]: 0.2; Binding of a rabbit serum to linear peptides of protein N of SARS-CoV Urbani (Rabbit serum linear peptides) [4]: 0.1; Binding of a rabbit serum to looped/cyclic peptides of protein N of SARS-CoV Urbani (Rabbit serum looped peptides) [4]: 0.2 |
